For the experiment, the system named is K98450-129-R-PDC multicell spheroids, viability. The experiment can be described thus: Anticancer human tumor K98450-129-R-PDC patient-derived colon adenocarcinoma cell line growth inhibition [PI3K]. The settings on record: for viability, T/C: stronger effect = lower value. In short, it runs like this:
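Multi-cell spheroids combine tumor cells with HUVEC and human MSCs, treated with targeted agents alone or with inavolisib, alpelisib, duvelisib or copanlisib. Concentrations fall in half-log steps from at or near clinical Cmax, or from 10 microM where Cmax is unknown; viability read-out.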

Molecules are shown by their SMILES. Values joined by “and” are separate entries in the source; they are usually repeats but may differ in a detail not shown here. Equal entries are not always repeated.
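Further: spheroids exposed to agents for seven days before read-out.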

As usually defined, the viability, T/C is the result in the treated group divided by that in the control group, in per cent. For orientation: IC50 means the midpoint of a concentration-inhibition curve. For `Cn1nccc1Nc1nccc(-c2ccn(C(CO)c3ccc(Cl)c(F)c3)c(=O)c2)n1` (configuration not stated), the viability, T/C (compound 0.0316 µM) was 105% (2×) and 95% and 106%; the viability, T/C (compound 0.1 µM) was 101% (2×) and 104% and 81.8%; the viability, T/C (compound 0.316 µM) was 103% [middle of 4 runs]; the viability, T/C (compound 1 µM) was 101% [middle of 4 runs]; the viability, T/C (compound 3.16 µM) was 100% [middle of 4 runs]; the viability, T/C (compound 10 µM) was 94% [middle of 4 runs]. Further, the IC50 (curve of compound) is more than 10 µM.

With `Cn1nccc1Nc1nccc(-c2ccn(C(CO)c3ccc(Cl)c(F)c3)c(=O)c2)n1` (configuration not stated) + COc1c(OCCCN2CCOCC2)ccc2c3n(c(=NC(=O)c4cnc(N)nc4)nc12)CCN3, the IC50 (curve of first compound, second compound 0.00316 µM) was more than 10 µM; the IC50 (curve of first compound, second compound 0.01 µM) is more than 10 µM; the IC50 (curve of first compound, second compound 0.0316 µM) was more than 10 µM; the IC50 (curve of first compound, second compound 0.1 µM) turned out to be 7.85 µM; the IC50 (curve of first compound, second compound 0.316 µM) is 8.33 µM; the concentration for half-maximal inhibition (IC50) (curve of first compound, second compound 1 µM) came out at 0.272 µM. Further, the viability, T/C by setting is: (second compound 0.00316 µM, first compound 0.0316 µM) 101%; (second compound 0.00316 µM, first compound 0.1 µM) 97.7%; (second compound 0.00316 µM, first compound 0.316 µM) 89.3%; (second compound 0.00316 µM, first compound 1 µM) 88.5%; (second compound 0.00316 µM, first compound 3.16 µM) 93.6%; (second compound 0.00316 µM, first compound 10 µM) 69.2%. In addition, the viability, T/C was 99.1% (second compound 0.01 µM, first compound 0.0316 µM); 82% (second compound 0.01 µM, first compound 0.1 µM); 79.7% (second compound 0.01 µM, first compound 0.316 µM); 79.9% (second compound 0.01 µM, first compound 1 µM); 77.4% (second compound 0.01 µM, first compound 3.16 µM); 95.5% (second compound 0.01 µM, first compound 10 µM). Also, the viability, T/C runs as follows: (second compound 0.0316 µM, first compound 0.0316 µM) 80.7%; (second compound 0.0316 µM, first compound 0.1 µM) 88.6%; (second compound 0.0316 µM, first compound 0.316 µM) 74.8%; (second compound 0.0316 µM, first compound 1 µM) 94.6%; (second compound 0.0316 µM, first compound 3.16 µM) 77.3%; (second compound 0.0316 µM, first compound 10 µM) 63.1%. The viability, T/C is 65.6% (second compound 0.1 µM, first compound 0.0316 µM); 74.8% (second compound 0.1 µM, first compound 0.1 µM); 73.3% (second compound 0.1 µM, first compound 0.316 µM); 75.3% (second compound 0.1 µM, first compound 1 µM); 70.2% (second compound 0.1 µM, first compound 3.16 µM); 44.5% (second compound 0.1 µM, first compound 10 µM). The viability, T/C (second compound 0.316 µM, first compound 0.0316 µM) was 63.2%; the viability, T/C (second compound 0.316 µM, first compound 0.1 µM) was 53.7%; the viability, T/C (second compound 0.316 µM, first compound 0.316 µM) is 55.6%; the viability, T/C (second compound 0.316 µM, first compound 1 µM) is 61.9%; the viability, T/C (second compound 0.316 µM, first compound 3.16 µM) was 59.7%; the viability, T/C (second compound 0.316 µM, first compound 10 µM) was 40.8%. Besides, the viability, T/C by setting is: (second compound 1 µM, first compound 0.0316 µM) 54.7%; (second compound 1 µM, first compound 0.1 µM) 61.5%; (second compound 1 µM, first compound 0.316 µM) 43.2%; (second compound 1 µM, first compound 1 µM) 43.9%; (second compound 1 µM, first compound 3.16 µM) 33.4%; (second compound 1 µM, first compound 10 µM) 20.9%.

For the compound `Cn1ncnc1[C@H]1c2n[nH]c(=O)c3cc(F)cc(c23)N[C@@H]1c1ccc(F)cc1`, the viability, T/C by setting is: (compound 0.000316 µM) 104% [middle of 4 runs]; (compound 0.001 µM) 95% [middle of 4 runs]; (compound 0.00316 µM) 103% [middle of 4 runs]; (compound 0.0316 µM) 104% [middle of 4 runs]; (compound 0.1 µM) 95.2% [middle of 4 runs]. In addition, where the note is “curve of compound”, the IC50 was more than 0.1 µM.

On to `CC(C)n1nc(-c2ccc3oc(N)nc3c2)c2c(N)ncnc21`, for which the viability, T/C was 103% [middle of 4 runs] (compound 0.000316 µM); 104% [middle of 4 runs] (compound 0.001 µM); 99.9% [middle of 4 runs] (compound 0.00316 µM); 98.2% [middle of 4 runs] (compound 0.01 µM); 95.5% [middle of 4 runs] (compound 0.0316 µM); 78.2% [middle of 4 runs] (compound 0.1 µM). The IC50 (curve of compound) was more than 0.1 µM.

The values are drawn from PubChem BioAssay AID1963961 (Molecular Pharmacology Branch, DTP, NCI, 2024).
